# Values quoted from earlier work, collected in patent US20070142460A1, “Compounds, compositions and methods” (priority 2003, published 2007).
# Tested on: A549 cells
row,GI50,SMILES
1,4 nM,CC(=O)O[C@H]1C(=O)[C@@]2(C)[C@H]([C@H](OC(=O)c3ccccc3)[C@]3(O)C[C@H](OC(=O)[C@H](O)[C@@H](NC(=O)c4ccccc4)c4ccccc4)C(C)=C1C3(C)C)[C@]1(OC(C)=O)CO[C@@H]1C[C@@H]2O [paclitaxel]
2,1000 nM,O=c1[nH]cc(F)c(=O)[nH]1 [5-fluorouracil]
3,63 nM,COc1cccc2c1C(=O)c1c(O)c3c(c(O)c1C2=O)C[C@@](O)(C(=O)CO)C[C@@H]3O[C@H]1C[C@H](N)[C@H](O)[C@H](C)O1 [doxorubicin]
4,500000 nM,NC(=O)NO [hydroxyurea]
